Test results from patent US20250232831A1, “METHOD FOR PREDICTING CELL MEMBRANE PERMEABILITY OF CYCLIC PEPTIDE” (FUJIFILM Corporation, priority 2022, published 2025).
Where two headings read alike, the source gives them in different places. Where a SMILES comes first, the peptide text is derived from it. Bridges are numbered along the chain shown (N, C = ends). [ ]: non-standard residue; d: D form. The star is where a group is joined. NMeL = CN[C@@H](CC(C)C)C(=O)O; hCys = N[C@@H](CCS)C(=O)O; NMeA = CN[C@@H](C)C(=O)O; Piperidide = C1CCN(*)CC1; dNMeA = CN[C@H](C)C(=O)O

Test: Evaluation of cell membrane permeability (permeation test, permeability coefficient Papp)
Type: in vitro ADME
Conditions: dog
Protocol: 300 μL of MDCK II cells (ECACC standard cell line) at a density of 1.0×10^6 cells/mL were seeded in an insert (dedicated for a 24-well plate, pore diameter: 3.0 μm, manufactured by Corning Incorporated), and cultured at 37° C. in a 5% CO2 environment. After 3 days, the electric resistance value of the cell layer (measuring device: Millicell (registered trademark) ERS-2 (manufactured by Millipore Corporation), electrode: ENDOHM-6 (manufactured by WPI, Inc.)) was measured, and it was confirmed that the cell layer had high barrier properties (>100 (2 Ω·cm^2).
The insert was washed by being immersed in a Hank's Balanced Salt Solution (HBSS) (phenol red-free), 200 μL of a sample prepared at 10 μmol/L/HBSS was added thereto, and the insert was allowed to stand in a low-adsorption 24-well plate containing 900 μL of HBSS (37° C., 5% CO2). After 2 hours, each liquid of the upper layer (apical) and the lower layer (basal) of the insert (10 μL for apical and 500 μL for basal) was recovered. After testing, no leakage was confirmed with Lucifer Yellow, which is a non-permeable fluorescent dye.
The device used was LC/MS/MS (triple quadrupole type). […]
Based on the calculation expression shown in the following expression, a permeability coefficient Papp, which represents the membrane permeability, was calculated from each quantitative value. […]

| Papp A→B at 2 h, 10 μmol/L (MDCK II cells, 10 μmol/L sample in HBSS, 2 hours, 37° C., apical to basal, read-out: Cell membrane permeability Papp) | SMILES | Papp A→B at 2 h, 10 μmol/L (MDCK) |
| --- | --- | --- |
| – | CC(C)C[C@@H]1NC(=O)[C@H](C)N(C)C(=O)[C@@H](C)N(C)C(=O)[C@H](CC(C)C)N(C)C(=O)[C@H](CC(C)C)N(C)C(=O)[C@H](CC(C)C)NC(=O)[C@H](CC(C)C)N(C)C(=O)CSCC[C@@H](C(=O)N2CCCCC2)NC(=O)[C@H](C)N(C)C(=O)[C@H](C)N(C)C1=O [Compound 1] ({CH2CO}-[NMeL]L[NMeL][NMeL][dNMeA][NMeA]L[NMeA][NMeA][hCys]-Piperidide; thioether N-10) | 1.1 ×10⁻⁶ cm/s |
| 0.04 ×10⁻⁶ cm/s | CC(C)C[C@@H]1NC(=O)[C@H](CC(C)C)N(C)C(=O)CSCC[C@@H](C(=O)N2CCCCC2)NC(=O)[C@H](C)N(C)C(=O)[C@@H]2CCCN2C(=O)[C@H](CC(C)C)N(C)C(=O)[C@H](C)NC(=O)[C@H](C)N(C)C(=O)[C@H](CC(C)C)N(C)C(=O)[C@H](CC(C)C)N(C)C1=O [Compound 2] ({CH2CO}-[NMeL]L[NMeL][NMeL][NMeA]A[NMeL]P[NMeA][hCys]-Piperidide; thioether N-10) | – |
